# Source: patent US20150157659A1, “METHOD OF INDUCING AUTOPHAGY AND ACTIVATING TOLL-LIKE RECEPTOR” (National Tsing Hua University, priority 2013, published 2015)
# Experiments:
# [1] = tested on: RAW 264.7 cells; assay: Immunofluorescence microscopy for Beclin 1 and LC3; format: cell-based, mouse
# Description: The cells were fixed and permeabilized as described previously, followed by extensive washing and primary antibody staining (1:100 dilution) for 1 h at 4° C. in the dark. The primary antibody was specific for LC3 (4108, Cell Signaling Technology), Beclin 1 (ab55878, Abcam), TLR4 (14-9924, eBioscience), TLR9 (ab17236, abcam), MyD88 (ab2068, abcam), TRAF6 (ab33915, abcam), phosphorylated NF-κB (3033, Cell Signaling Technology) or IRF3 (sc-15991, Santa Cruz Biotechnology). After washing, the cells were incubated with the goat anti-mouse antibody conjugated with Alexa 488 (for TLR9, Invitrogen), goat anti-rabbit antibody conjugated with Alexa 488 (for LC3, MyD88, TRAF6 and NF-κB, Invitrogen) or donkey anti-goat IgG conjugated with Dylight 488 (for IRF3, Jackson ImmunoResearch) for 1 h at 4° C. in the dark. After washing, the cells were counterstained with 4,6-diamidino-2-phenylindole (DAPI, Vector Labs) and visualized with a confocal microscope (Nikon TE2000 equipped with the confocal upgrade laser kit). Fifty to one hundred cells in the images for LC3 were counted for quantification of LC3+ cells.
# Beclin 1 and LC3 are two key proteins associated with the autophagy pathway and are common indicators of autophagy induction. […]
# [2] = tested on: RAW264.7; assay: Cell morphology and vacuoles under phase contrast microscope after GO treatment; format: cell-based, mouse; details: LPS 10 μg/ml, 24 h
# Description: The mouse macrophage cell line RAW264.7 was maintained in Dulbecco's modified Eagles medium (DMEM, Gibco) containing 10% fetal bovine serum (FBS, Gibco) and subcultured upon 70-80% confluency. For GO treatment, the cells were seeded to 6-well plates (3×10^5 cells/cm^2) overnight and cultured using the medium supplemented with GO at final concentrations of 5 or 100 μg/ml for 24 h. In parallel, the cells were treated with LPS (10 μg/ml, Sigma) for 24 h as the positive control. After the treatment, the cell morphology and vacuoles were observed under the phase contrast microscope.
# To examine how GO nanosheets influenced the macrophage, RAW 264.7 cells were incubated with small GO at either 5 μg/ml (designated as GO5 group) or 100 μg/ml (designated as GO100 group) for 24 h.
# [3] = tested on: RAW 264.7 cells; assay: Cell death and TUNEL apoptosis of treated macrophages; format: cell-based; details: LPS 10 μg/ml
# [4] = tested on: RAW 264.7 cells; assay: Transmission electron microscopy of autophagic vacuoles; format: cell-based, mouse; details: LPS 10 μg/ml
# Description: The cells were harvested, centrifuged (215×g, 10 min), washed with cold PBS and fixed with 2.5% glutaraldehyde (in 0.2 M sodium cacodylate, pH 7.4). The samples were then fixed in 1% OsO4 for 1 h at 4° C., dehydrated with increasing concentrations of ethanol, embedded in spur resin and sectioned. The ultrathin sections were stained with uranyl acetate and observed under the TEM.
# [5] = tested on: RAW 264.7 cells; assay: ELISA of cytokines in supernatant of treated macrophage cells; format: cell-based, mouse; details: LPS
# Description: At 24 h post-treatment, the supernatant was collected from the GO-treated cell culture and analyzed using ELISA kits specific for mouse IL-2, IL-10, TNF-α, IFN-β and IFN-γ. The cells were lysed for Western blot using primary antibodies (1:1000 dilution) specific for LC3, Beclin 1 or β-actin (A-2066, Sigma) and the secondary antibody was HRP-conjugated IgG (1:5000 dilution, Amersham Biosciences). The images were developed using the GeneGnome HR scanner (Syngene).
Molecule,GO100-triggered formation of LC3+ aggregate dots ([1]; pre-treatment of cells with the autophagy inhibitor),formation of vacuoles inside the cells [2],cell death [3],autophagic vacuoles (AV) by TEM [4],Beclin 1 and LC3 dots by immunofluorescence ([1]; LPS-treated cells),cytokine secretion [5]
"Cn1cnc(N)c2ncnc1-2 [3-MA, 3-methyl adenine]",diminished the GO100-triggered formation of LC3+ aggregate dots,–,–,–,–,–
lipopolysaccharides [LPS],–,also observed in the LPS-treated cells,also observed in the LPS-treated cells,triggered more prominent AV,also observed in the LPS-treated cells,cytokine secretion triggered by LPS
